Data on one molecule can be found in patent publication US8901118B2, “Compounds and methods for kinase modulation, and indications therefor” (Plexxikon Inc., priority 2010, dated 2014).

The assay deals with MV-4-11 cells. The experiment in a line: MV-4-11 (leukemia) cell proliferation assay (ATPlite). Format: cell-based. The settings on record: Homo sapiens, MV4-11, read-out: Inhibition of Cell Proliferation IC50, MV-4-11. Here is the method:
Compounds are assessed in a variety of cell based assays. For example BaF3 cells engineered with any of BCR-FMS, BCR-KIT, BCR-FLT3, BCR-NTRK1, BCR-NTRK2, and BCR-NTRK3, are used in cell proliferation assays to assess inhibitory activity of Fms, Kit, Flt-3, TrkA, TrkB, and TrkC, respectively. An MV-4-11 (leukemia) cell proliferation assay is used to assess inhibitory activity in Flt-3, and SKNSH (human neuroblastoma) cell proliferation assay is used to assess efficacy of Fms/Trk inhibitors. Additional cells may be assayed similarly to assess the efficacy of Fms/Trk inhibitors, such as MiaPaCa (human pancreatic cancer) and Capan-1 (human pancreatic carcinoma) cells. Reagent and assay conditions are as follows: • BaF3 cells: • Maintained in RPMI containing 10% FBS, 1% PenStrep, 1% NEAA, and 1% L-Glutamine, supplemented with 1 mg/mL G418 and 5% WEHI-CM (or recombinant murine IL-3). • Confluent cells are split 1:50 to 1:100 every 3-4 days. • MV-4-11 cells: • Maintained in Iscove's Modified Dulbecco's Medium containing 10% FBS. • Confluent cells are split 1:4 every 3-4 days. • SKNSH cells: RPMI containing 10% FBS. On day 1, cells are counted, then centrifuged in a conical tube for 5 minutes at 1000 rpm. The supernatant is removed and cells are re-suspended as follows: • BaF3: resuspend in growth media +1 mg/mL G418 (without WEHFIL-3) to 2×10^5 cells/mL. • MV-4-11: resuspend in growth media to 5×10^5 cells/mL. • SKNSH: resuspend in growth media to 2×10^4 cells/mL. The cells are plated (50 μL, 150 μL for SKNSH cells) in each well of a 96-well dish (Corning 3610) and incubated at 37° C. in 5% CO2 overnight, cells plated to a final concentration of cells as follows: • BaF3: 10,000 cells per well. • MV-4-11: 25,000 cells per well. • SKNSH: 3,000 cells per well. On day 2, compound at a maximum concentration of 5 mM is serially diluted 1:3 for a total of 8 point titration with DMSO as a control. A 1 μL aliquot of each dilution point is added to 249 μL growth media and 50 μL is added to a well containing cells, providing 10 μM compound for the maximum concentration point. The cells are incubated for 3 days at 37° C. in 5% CO2. For SKNSH cells, a 0.75 μL aliquot of appropriate dilution in DMSO is added to 150 μL of cells. On day 5, ATPlite 1 step Luminescence Assay System (Perkin Elmer #6016739) is brought to room temperature along with the cell cultures. ATPlite is added to each well as follows: • BaF3: 25 μL per well. • MV-4-11: 40 μL per well. • SKNSH: 20 μL per well. The cells are incubated at room temperature for 10 minutes, then luminescence is read on Safire reader. The measured luminescence correlates directly with cell number, such that the reading as a function of compound concentration is used to determine the IC50 value.
It is understood that the results of these assays may vary as assay conditions are varied. Inhibition levels determined under the conditions described herein represent a relative activity for the compounds tested under the specific conditions employed. The cell based assays are likely to show variability due to the complexity of the system and the sensitivity thereof to any changes in the assay conditions. […] Results for compounds that are tested and show substantially no inhibition below the highest tested concentration are represented as “-” in the tables below. In some instances, the compounds were not tested in all of the assays, or assay results were not valid, as indicated by NA in the tables below.

Each structure is given as a SMILES string. Bounds are passed on as bounds.

Consider `Fc1nc(NC2CCC(F)(F)CC2)ccc1Cc1c[nH]c2ncc(Cl)cc12` [Compound P-3013, [5-(5-Chloro-1H-pyrrolo[2,3-b]pyridin-3-ylmethyl)-6-fluoro-pyridin-2-yl]-(4,4-difluoro-cyclohexyl)-amine], for which the IC50 was less than 10 µM.
